According to patent publication US7041677B2, “Use of monochloroflosequinan in the treatment of sexual dysfunction” (R.T. Alamo Ventures I, LLC, priority 2002, dated 2006):
“And” between values parts separate entries of the source, which are not always exact repeats. Equal entries are not always repeated. Marks after values point to notes of the source that are not given here.

System: male Cynomolgus monkeys (Macaca fascicularis)
Test: Erection monitoring after single intracavernosal dose
Assay type: in vivo
Design: key to Onset Score / Duration Score: 0: no response; erection but transient—less than 1 minute; 2: erection lasting at least 1 minute but less than 5 minutes; 3: erection lasting at least 5 minutes but less than 7 minutes; 4: erection lasting longer than 7 minutes
Conditions: for Erection Score: Erection Score=2D+O; for Onset of Erection: minutes post administration; for Erection Index: Erection Score/n, n=number of animals (4 monkeys); for inducing penile erections: Cynomolgus monkeys, intracavernosal, summary of Tables 4 & 5
Method: In this example, various halogenated derivatives of flosequinan were evaluated for their ability to induce penile erections. A single intracavernosal dose (of a given halogenated derivative of flosequinan) was administered to male Cynomolgus monkeys (Macaca fascicularis). The Cynomolgus monkey was selected because it is an appropriate established non-rodent species to be used as an erectile dysfunction model. Before the application of the test substances the possible erectile effect of dimethylsulfoxide 25% (DMSO) at a dose volume of 0.15 ml was assessed. (Concentrations of test compounds of less than 10 mg/ml were administered in 25% DMSO. Concentrations of 10 mg/ml or greater were administered in 100% DMSO). An initial dose level of 0.625 mg/kg of the test substance and the derivatives were used. If an erectile effect of the initial dose level was observed 1.25 mg/kg and finally 2.5 mg/kg of each test substance was used. Between each dose level and change of test substance there was a wash out phase of three days [except on Days 1 to 4 (Monochloroflosequinan Racemate) and days 40 to 43 (Monofluoroflosequinan) of the study where there was a wash out phase of only two days between treatments]. Dose volume: A dose volume of 0.15 ml per animal was used. The test substances were prepared according to the following scheme. For each test substance 10 mg was diluted in 1 ml of DMSO. After the test substance was completely dissolved the solution was diluted stepwise 1:2 with double distilled water to the required dose level. The test substance was formulated on the day of the dosing and stored at room temperature. No stability test was required when the test substances were formulated on the day of dosing. Remaining test substances were stored at approximately -80° C. Sufficient purpose-bred naive Cynomolgus monkeys (Macaca fascicularis) were obtained from a recognized supplier in order to provide 4 healthy male animals. At the start of study the animals were in the weight range of 4 to 7 kg and approximately 4 to 6 years old. The animals were housed in a climate controlled room to provide a minimum of 10 air changes per hour. Routinely the temperature and relative humidity ranges were between 19-25° C. and 30-70% respectively. Artificial lighting was controlled automatically to give a cycle of 12 hours light and 12 hours dark. The animals were housed singly in stainless steel cages (dimensions: 600 mm×600 mm×800 mm; E. Becker & Co. GmbH, 44579 Castrop-Rauxel, Germany). Each animal was offered twice daily between 50 to 70 g of a commercial pellet diet for primates (Ssniff P10, Ssniff Spezialdiäten GmbH, Ferdinand-Gabriel-Weg 16, 59494 Soest, Germany). Every three months diet was analyzed for specific contaminants. Tap water was provided ad libtum via an automatic watering system or bottles, except during urine collection. The water was periodically analyzed for specific contaminants found to be present in the diet or water at levels that might interfere with achieving the objective of the study. Clinical Observations: In addition to the initial pharmacological effect (penile erection) monitoring, all animals were observed twice daily for signs of ill health or overt toxicity. An individual record was maintained of the clinical condition of each animal. Post-dosing observations were performed at the discretion of the Study Director. All animals were examined at the beginning and the end of the working hours. […] Body weights were recorded once before dosing. Food consumption was not recorded. For proof of erection capability the animals were checked once pre-dose with electrostimulation using a rectal probe under sedation with […]. […] The onset post drug administration and duration of erection were recorded. Table 5 (below) provides an “Erection Score” and “Erection Index” for the same selected halogenated flosequinan derivatives presented in Table 5. […]

[1] = 0.625 mg/ml intracavernosal, monkey 11539M
[2] = 0.625 mg/ml intracavernosal, monkey 11543M
[3] = 0.625 mg/ml intracavernosal, monkey 11584M
[4] = 0.625 mg/ml intracavernosal, monkey 11590M
[5] = 2.5 mg/ml intracavernosal, monkey 11539M
[6] = 2.5 mg/ml intracavernosal, monkey 11543M
[7] = 2.5 mg/ml intracavernosal, monkey 11584M
[8] = 2.5 mg/ml intracavernosal, monkey 11590M
[9] = 10 mg/ml intracavernosal, monkey 11539M
[10] = 10 mg/ml intracavernosal, monkey 11543M
[11] = 10 mg/ml intracavernosal, monkey 11584M
[12] = 10 mg/ml intracavernosal, monkey 11590M

Cn1cc([S+]([O-])CCl)c(=O)c2ccc(F)cc21 (racemic) [monochloroflosequinan, 3-chloromethylsulfinyl-7-fluoro-1-methyl-4-quinolone]
Duration Score [1]: 0
Onset Score [1]: 0
Erection Score [1]: 0
Duration Erection [2]: <1 min-^
Duration Score [2]: 0
Onset Score [2]: 0
Onset of Erection [2]: 70^a* min
Erection Score [2]: 0
Duration Score [3]: 0
Onset Score [3]: 0
Erection Score [3]: 0
Duration Score [4]: 0
Onset Score [4]: 0
Erection Score [4]: 0
Erection Index (0.625 mg/ml intracavernosal): 0
Duration Score [5]: 0
Onset Score [5]: 0
Erection Score [5]: 0
Duration Score [6]: 0
Onset Score [6]: 0
Erection Score [6]: 0
Duration Score [7]: 0
Onset Score [7]: 0
Erection Score [7]: 0
Duration Score [8]: 0
Onset Score [8]: 0
Erection Score [8]: 0
Erection Index (2.5 mg/ml intracavernosal): 0
Duration Score [9]: 0
Onset Score [9]: 0
Erection Score [9]: 0
Duration Score [10]: 0
Onset Score [10]: 0
Erection Score [10]: 0
Duration Score [11]: 0
Onset Score [11]: 0
Erection Score [11]: 0
Duration Score [12]: 0
Onset Score [12]: 0
Erection Score [12]: 0
Erection Index (10 mg/ml intracavernosal): 0

Cn1cc([S@+]([O-])CCl)c(=O)c2ccc(F)cc21 (single isomer, unassigned) [(+)-enantiomer of monochloroflosequinan]
Duration Erection [5]: <1 min
Duration Score [5]: 1 (erection but transient—less than 1 minute)
Onset Score [5]: 1 (erection onset longer than 10 minutes)
Onset of Erection [5]: 107* min
Erection Score [5]: 3
Duration Erection [6]: <1 min
Duration Score [6]: 1 (erection but transient—less than 1 minute)
Onset Score [6]: 1* (erection onset longer than 10 minutes)
Onset of Erection (2.5 mg/ml intracavernosal, monkey 11543M, listed as MONOCHLOROFLOSEQUINAN S(+)): 34* min and 38* min and 39^a* ejaculation min
Erection Score [6]: 3
Duration Score [7]: 1 (erection but transient—less than 1 minute)
Onset Score [7]: 1 (erection onset longer than 10 minutes)
Erection Score [7]: 3
Duration Score [8]: 3 (erection lasting at least 5 minutes but less than 7 minutes)
Onset Score [8]: 4 (erection onset 1 minute or less (immediate))
Erection Score [8]: 10
Erection Index (2.5 mg/ml intracavernosal): 4.8
Duration Score [9]: 0
Onset Score [9]: 4* (erection onset 1 minute or less (immediate))
Erection Score [9]: 4
Duration Score [10]: 0
Onset Score [10]: 0
Erection Score [10]: 0
Duration Erection [11]: <1 min
Duration Score [11]: 1 (erection but transient—less than 1 minute)
Onset Score [11]: 3* (erection onset between 2 and 4 minutes)
Erection Score [11]: 5
Duration Erection [12]: 8 min
Duration Score [12]: 4 (erection lasting longer than 7 minutes)
Onset Score [12]: 4 (erection onset 1 minute or less (immediate))
Onset of Erection [12]: immediate <1 min
Erection Score [12]: 12
Erection Index (10 mg/ml intracavernosal): 5.3
inducing penile erections: especially effective

Cn1cc([S@@+]([O-])CCl)c(=O)c2ccc(F)cc21 (single isomer, unassigned) [(−)-enantiomer of monochloroflosequinan]
Duration Score [9]: 0
Onset Score [9]: 0
Erection Score [9]: 0
Duration Score [10]: 0
Onset Score [10]: 0
Erection Score [10]: 0
Duration Score [11]: 0
Onset Score [11]: 0
Erection Score [11]: 0
Duration Erection [12]: 7 min
Duration Score [12]: 3 (erection lasting at least 5 minutes but less than 7 minutes)
Onset Score [12]: 4 (erection onset 1 minute or less (immediate))
Onset of Erection [12]: immediate <1 min
Erection Score [12]: 10
Erection Index (10 mg/ml intracavernosal): 2.5

Cn1cc([S+]([O-])C(Cl)Cl)c(=O)c2ccc(F)cc21 (stereo not shown) [dichloroflosequinan, 3-dichloromethylsulfinyl-7-fluoro-1-methyl-4-quinolone]
Duration Score [9]: 0
Onset Score [9]: 0
Erection Score [9]: 0
Duration Erection [10]: 1 min
Duration Score [10]: 2 (erection lasting at least 1 minute but less than 5 minutes)
Onset Score [10]: 4 (erection onset 1 minute or less (immediate))
Erection Score [10]: 8
Duration Erection [11]: 1 min
Duration Score [11]: 2 (erection lasting at least 1 minute but less than 5 minutes)
Onset Score [11]: 4 (erection onset 1 minute or less (immediate))
Onset of Erection [11]: immediate <1 min
Erection Score [11]: 8
Duration Erection [12]: 7 min
Duration Score [12]: 4 (erection lasting longer than 7 minutes)
Onset Score [12]: 4 (erection onset 1 minute or less (immediate))
Onset of Erection [12]: immediate <1 min
Erection Score [12]: 12
Erection Index (10 mg/ml intracavernosal): 7.0
inducing penile erections: especially effective
